Entries after “also recorded” stand apart in the source; their conditions may differ. Where two headings read alike, the source gives them in different places.
Assays:
TRPA1 [1] = target: T1, TRPA1 (Homo sapiens, UniProt O75762); experiment: Citric acid-induced Ca+2 influx in CCD19-Lu cells; assay type: cell-based; set-up: A549 cells have been reported to express endogenous TRPA1; host or cells: A549
Description: (§1) Human lung fibroblast cells, CCD19-Lu (ATCC CCL-210) were obtained from American Type Culture Collection (ATCC; Rockville, MD, USA) and cultured in MEM supplemented with 10% FBS. Human pulmonary alveolar epithelial cell line A549 (ATCC CCL-185) was also obtained from ATCC and maintained in DMEM F-12 supplemented with 10% FBS. Both the cell types were cultured at 37°C in humidified air containing 5% CO2. Chinese hamster ovary (CHO) cells stably expressing human TRPA1 (hTRPA1/CHO), TRPV1 (hTRPV1/CHO), TRPV3 (hTRPV3/CHO), TRPV4 (hTRPV4/CHO and TRPM8 (hTRPM8/CHO were generated in-house and maintained in DMEM F-12 supplemented with 10% FBS and G418.
(§2) Fluorimetric and radiometric Ca^+2 influx assay was performed as described earlier. GRC 17536, GRC 17770, compound 7 or GRC 6211 was added to the cells 15 minutes prior to addition of agonist. Citric acid stock solution (1 M) was prepared in dH2O. Subsequent dilutions were made in Ca^+2, Mg^+2 free PBS (pH 7.3). No significant change in pH was observed upto 10 mM citric acid. At 30 mM concentration of citric acid, the pH of the solution dropped to 5.5. TLR ligands - LPS (10 µg/ml, TLR4), loxoribine (10 µM, TLR7) and ssRNA40 (1 µg/ml, TLR8) were dissolved in media and added to the cells for 16–18 hours. TRP selectivity of GRC 17536 and compound 7 was performed for TRPV1, TRPV3, TRPV4 and TRPM8 using Capsaicin (1 µM), 2-APB (1 mM), 4α-PDD (30 µM) and Icilin (250 nM) respectively, as agonist.

TRPA1 [2] = target: T1, TRPA1; experiment: Citric acid-induced Ca+2 influx in hTRPA1/CHO cells; assay type: cell-based; set-up: expressed in transfected cells
Description: as §1, §2

TRPV1 [3] = target: T2, TRPV1 (Homo sapiens, UniProt Q8NER1); experiment: Citric acid effect on Ca+2 influx in hTRPV1/CHO cells; assay type: cell-based; settings: data not shown
T2 construct: expressed in transfected cells
T2 sequence (Q8NER1 whole entry): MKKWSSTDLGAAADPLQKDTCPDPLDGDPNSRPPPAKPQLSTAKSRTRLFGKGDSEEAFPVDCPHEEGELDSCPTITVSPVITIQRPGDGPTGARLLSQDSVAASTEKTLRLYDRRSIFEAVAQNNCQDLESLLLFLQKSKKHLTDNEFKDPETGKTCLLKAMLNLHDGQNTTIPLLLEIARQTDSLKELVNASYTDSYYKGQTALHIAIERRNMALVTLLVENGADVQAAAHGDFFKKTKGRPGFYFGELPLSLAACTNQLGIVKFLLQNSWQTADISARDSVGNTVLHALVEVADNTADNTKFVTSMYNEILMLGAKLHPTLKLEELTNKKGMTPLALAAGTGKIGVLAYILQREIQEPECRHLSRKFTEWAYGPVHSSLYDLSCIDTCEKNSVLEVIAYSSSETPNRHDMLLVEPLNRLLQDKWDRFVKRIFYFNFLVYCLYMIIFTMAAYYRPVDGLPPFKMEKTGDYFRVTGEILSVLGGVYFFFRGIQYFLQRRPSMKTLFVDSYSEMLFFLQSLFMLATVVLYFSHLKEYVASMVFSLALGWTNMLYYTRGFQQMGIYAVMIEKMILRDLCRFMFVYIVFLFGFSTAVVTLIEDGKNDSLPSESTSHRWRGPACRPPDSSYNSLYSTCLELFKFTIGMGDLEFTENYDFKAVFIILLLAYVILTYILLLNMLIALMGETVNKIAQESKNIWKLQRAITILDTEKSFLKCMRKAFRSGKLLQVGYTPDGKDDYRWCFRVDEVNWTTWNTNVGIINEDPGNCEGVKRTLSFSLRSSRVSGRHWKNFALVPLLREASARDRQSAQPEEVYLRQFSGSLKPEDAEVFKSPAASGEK
Description: as §1
as §2, with “TRP selectivity of GRC 17536 and compound 7 was performed for TRPV1, TRPV3, TRPV4 and TRPM8 using Capsaicin (1 µM), 2-APB (1 mM), 4α-PDD (30 µM) and Icilin (250 nM) respectively, as agonist.” left out

TRPA1 [4] = target: T1, TRPA1; experiment: Citric acid-induced Ca+2 influx in A549 cells; assay type: cell-based; set-up: A549 cells have been reported to express endogenous TRPA1; host or cells: A549
Description: as §1, §2

[5] = test system: citric acid induced cough response; experiment: Citric acid induced conscious cough model; assay type: in vivo, guinea pig; settings: 2 h before citric acid aerosol (0.4 M); for Inhibition of cough response: 30 mg/kg i.p.; for Inhibition of cough compared to vehicle: coughs recorded 10 minutes
Description: Male Hartley guinea pigs (200–600 g, Harlan, UK) were acclimatized in cages (20–22°C, with a light/dark cycle of 12/12 hours) before beginning of the experiments and were maintained on an ad lib standard guinea pig pellet diet and water containing dietary amounts of ascorbic acid.
Cough was detected both by pressure change and by sound and recorded with a Buxco cough analyzer (Buxco, Wilmington, NC, USA) as described earlier. Guinea pigs were randomly assigned to various test groups and were treated with different doses of GRC 17536 or Dextromethorphan i.p. before tussive challenge. The Vehicle control group received only 0.5% methyl cellulose. Two hours after i.p. administration of vehicle or test compounds, animals were placed in individual whole body plethysmographs and were exposed to citric acid aerosol (0.4 M) and the incidences of cough were recorded for 10 minutes with the help of Buxco cough analyzer.
For in vitro experiments, data was analyzed using GraphPad Prism 3.0 (GraphPad Software Inc. San Diego, CA, USA). For in vivo experiment, data from the treatment groups were compared with the control group. Mean values were statistically analyzed by one-way analysis of variance (ANOVA) followed by the Dunnett's Multiple Comparisons Test to evaluate significant differences between groups.

[6] = Plasma concentration in the cough model; assay type: in vivo; settings: at the EDmax dose (∼89% suppression of cough), guinea pig, i.p.
TRPA1 [7] = target: T1, TRPA1; set-up: method as in PMID 21848366; settings: CCD19-Lu cells; read-out: IC50 with AITC as agonist; cited from earlier work
TRPV4 = target: T3, TRPV4 (Homo sapiens, UniProt Q9HBA0); experiment: TRP selectivity, hTRPV4/CHO, 4α-PDD as agonist; assay type: cell-based; settings: agonist 4α-PDD (30 µM)
T3 construct: expressed in transfected cells
T3 sequence (Q9HBA0 whole entry): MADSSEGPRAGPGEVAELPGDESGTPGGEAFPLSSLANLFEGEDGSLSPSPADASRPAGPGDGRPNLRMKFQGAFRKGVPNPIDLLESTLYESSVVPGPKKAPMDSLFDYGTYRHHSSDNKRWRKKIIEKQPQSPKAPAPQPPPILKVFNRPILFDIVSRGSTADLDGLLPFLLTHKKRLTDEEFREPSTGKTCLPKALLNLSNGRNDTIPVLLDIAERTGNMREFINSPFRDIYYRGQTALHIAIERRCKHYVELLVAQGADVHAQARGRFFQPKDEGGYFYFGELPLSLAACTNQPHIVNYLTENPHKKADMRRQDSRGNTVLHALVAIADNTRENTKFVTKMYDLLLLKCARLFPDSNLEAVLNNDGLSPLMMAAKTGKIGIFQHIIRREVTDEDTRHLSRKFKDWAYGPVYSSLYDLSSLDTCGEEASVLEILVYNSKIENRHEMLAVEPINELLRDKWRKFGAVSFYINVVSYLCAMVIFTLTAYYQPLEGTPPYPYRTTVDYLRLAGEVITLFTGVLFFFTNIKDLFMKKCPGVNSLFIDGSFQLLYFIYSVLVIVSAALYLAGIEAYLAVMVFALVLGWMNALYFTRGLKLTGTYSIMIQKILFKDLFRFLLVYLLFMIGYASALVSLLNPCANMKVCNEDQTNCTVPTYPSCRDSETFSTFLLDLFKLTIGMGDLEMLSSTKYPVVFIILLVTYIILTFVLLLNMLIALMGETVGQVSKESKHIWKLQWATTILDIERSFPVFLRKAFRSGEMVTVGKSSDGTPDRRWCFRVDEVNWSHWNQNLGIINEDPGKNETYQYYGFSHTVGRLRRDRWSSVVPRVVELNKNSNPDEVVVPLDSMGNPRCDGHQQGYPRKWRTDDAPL
Description: as §1
as §2, with “TRP selectivity of GRC 17536 and compound 7 was performed for TRPV1, TRPV3, TRPV4 and TRPM8 using Capsaicin (1 µM), 2-APB (1 mM), 4α-PDD (30 µM) and Icilin (250 nM) respectively, as agonist.” left out

TRPM8 = target: T4, TRPM8 (Homo sapiens, UniProt Q7Z2W7); experiment: TRP selectivity, hTRPM8/CHO, Icilin as agonist; assay type: cell-based; settings: agonist Icilin (250 nM)
T4 construct: expressed in transfected cells
T4 sequence (Q7Z2W7 whole entry): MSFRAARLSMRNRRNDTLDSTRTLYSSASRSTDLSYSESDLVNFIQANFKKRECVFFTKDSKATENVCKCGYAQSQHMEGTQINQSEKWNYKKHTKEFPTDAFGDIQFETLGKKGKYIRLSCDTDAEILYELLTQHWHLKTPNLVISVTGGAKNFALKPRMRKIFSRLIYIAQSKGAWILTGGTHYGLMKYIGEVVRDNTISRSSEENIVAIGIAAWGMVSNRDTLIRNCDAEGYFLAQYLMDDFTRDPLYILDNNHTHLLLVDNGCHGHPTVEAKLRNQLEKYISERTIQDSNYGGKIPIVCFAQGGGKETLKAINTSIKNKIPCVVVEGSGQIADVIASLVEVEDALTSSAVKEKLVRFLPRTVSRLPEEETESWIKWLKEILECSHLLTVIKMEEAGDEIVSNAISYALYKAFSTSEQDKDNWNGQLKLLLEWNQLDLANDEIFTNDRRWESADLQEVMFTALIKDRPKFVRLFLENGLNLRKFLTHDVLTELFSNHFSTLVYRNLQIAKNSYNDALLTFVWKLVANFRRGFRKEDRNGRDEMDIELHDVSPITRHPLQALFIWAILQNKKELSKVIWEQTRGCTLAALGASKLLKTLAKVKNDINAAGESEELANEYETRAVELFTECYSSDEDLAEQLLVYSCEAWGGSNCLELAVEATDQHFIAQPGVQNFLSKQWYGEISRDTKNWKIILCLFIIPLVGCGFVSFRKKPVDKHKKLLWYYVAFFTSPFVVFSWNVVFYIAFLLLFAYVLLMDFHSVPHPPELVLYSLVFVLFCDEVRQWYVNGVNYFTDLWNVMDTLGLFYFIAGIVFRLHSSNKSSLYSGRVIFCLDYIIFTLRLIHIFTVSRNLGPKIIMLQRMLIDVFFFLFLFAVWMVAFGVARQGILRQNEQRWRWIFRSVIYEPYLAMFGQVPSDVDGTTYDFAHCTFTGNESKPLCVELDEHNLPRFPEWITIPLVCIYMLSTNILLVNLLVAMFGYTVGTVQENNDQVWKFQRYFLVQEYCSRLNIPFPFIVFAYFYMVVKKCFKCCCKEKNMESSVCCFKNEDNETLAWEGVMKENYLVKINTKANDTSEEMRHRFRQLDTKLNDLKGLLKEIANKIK
Description: as §1
as §2, with “TRP selectivity of GRC 17536 and compound 7 was performed for TRPV1, TRPV3, TRPV4 and TRPM8 using Capsaicin (1 µM), 2-APB (1 mM), 4α-PDD (30 µM) and Icilin (250 nM) respectively, as agonist.” left out

TRPV1 [8] = target: T2, TRPV1; experiment: TRP selectivity, hTRPV1/CHO, Capsaicin as agonist; assay type: cell-based; settings: agonist Capsaicin (1 µM)
Description: as §1
as §2, with “TRP selectivity of GRC 17536 and compound 7 was performed for TRPV1, TRPV3, TRPV4 and TRPM8 using Capsaicin (1 µM), 2-APB (1 mM), 4α-PDD (30 µM) and Icilin (250 nM) respectively, as agonist.” left out

TRPA1 [9] = target: T1, TRPA1; experiment: TLR ligand-enhanced 45Ca+2 uptake in A549 cells; assay type: cell-based; set-up: A549 cells have been reported to express endogenous TRPA1; host or cells: A549; settings: A549
Description: as §1, §2

TRPA1 [10] = target: T1, TRPA1; set-up: A549 cells have been reported to express endogenous TRPA1; host or cells: A549; method as in PMID 21848366; settings: A549 cells; read-out: IC50 with AITC as agonist; cited from earlier work
TRPA1 [11] = target: T1, TRPA1; experiment: TLR ligand-enhanced 45Ca+2 uptake in hTRPA1/CHO cells; assay type: cell-based; set-up: expressed in transfected cells; settings: hTRPA1/CHO
Description: as §1, §2

TRPV3 = target: T5, TRPV3 (Homo sapiens, UniProt Q8NET8); experiment: TRP selectivity, hTRPV3/CHO, 2-APB as agonist; assay type: cell-based; settings: agonist 2-APB (1 mM)
T5 construct: expressed in transfected cells
T5 sequence (Q8NET8 1-790): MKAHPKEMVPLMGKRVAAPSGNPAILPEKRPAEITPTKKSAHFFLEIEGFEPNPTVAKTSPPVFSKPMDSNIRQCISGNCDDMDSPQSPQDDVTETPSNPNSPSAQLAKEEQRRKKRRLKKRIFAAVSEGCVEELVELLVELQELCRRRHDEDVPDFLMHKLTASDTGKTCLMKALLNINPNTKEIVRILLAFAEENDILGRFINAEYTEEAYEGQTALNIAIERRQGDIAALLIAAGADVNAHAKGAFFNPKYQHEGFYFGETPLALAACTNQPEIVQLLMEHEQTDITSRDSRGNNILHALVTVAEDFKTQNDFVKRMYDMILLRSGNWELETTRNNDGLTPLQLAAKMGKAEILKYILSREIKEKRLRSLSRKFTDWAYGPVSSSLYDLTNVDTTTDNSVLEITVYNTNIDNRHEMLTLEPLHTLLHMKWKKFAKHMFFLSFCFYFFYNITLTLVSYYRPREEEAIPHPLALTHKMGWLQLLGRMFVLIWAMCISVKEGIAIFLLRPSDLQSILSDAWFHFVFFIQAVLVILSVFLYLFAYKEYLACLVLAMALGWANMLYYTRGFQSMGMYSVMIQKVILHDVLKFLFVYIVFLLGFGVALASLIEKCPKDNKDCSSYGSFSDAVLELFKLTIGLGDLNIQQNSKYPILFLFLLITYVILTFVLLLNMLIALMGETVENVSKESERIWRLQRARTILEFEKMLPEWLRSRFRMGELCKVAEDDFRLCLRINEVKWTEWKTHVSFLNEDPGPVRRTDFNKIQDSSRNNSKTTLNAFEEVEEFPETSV
Description: as §1
as §2, with “TRP selectivity of GRC 17536 and compound 7 was performed for TRPV1, TRPV3, TRPV4 and TRPM8 using Capsaicin (1 µM), 2-APB (1 mM), 4α-PDD (30 µM) and Icilin (250 nM) respectively, as agonist.” left out

[12] = highest concentration of inducer, one range printed for CCD19-Lu and A549 together
[13] = antagonist added 15 minutes prior to agonist, read-out: IC50, inhibition of citric acid induced Ca+2 influx
[14] = 10 nM, stated for both cell types

T1 sequence (O75762 whole entry): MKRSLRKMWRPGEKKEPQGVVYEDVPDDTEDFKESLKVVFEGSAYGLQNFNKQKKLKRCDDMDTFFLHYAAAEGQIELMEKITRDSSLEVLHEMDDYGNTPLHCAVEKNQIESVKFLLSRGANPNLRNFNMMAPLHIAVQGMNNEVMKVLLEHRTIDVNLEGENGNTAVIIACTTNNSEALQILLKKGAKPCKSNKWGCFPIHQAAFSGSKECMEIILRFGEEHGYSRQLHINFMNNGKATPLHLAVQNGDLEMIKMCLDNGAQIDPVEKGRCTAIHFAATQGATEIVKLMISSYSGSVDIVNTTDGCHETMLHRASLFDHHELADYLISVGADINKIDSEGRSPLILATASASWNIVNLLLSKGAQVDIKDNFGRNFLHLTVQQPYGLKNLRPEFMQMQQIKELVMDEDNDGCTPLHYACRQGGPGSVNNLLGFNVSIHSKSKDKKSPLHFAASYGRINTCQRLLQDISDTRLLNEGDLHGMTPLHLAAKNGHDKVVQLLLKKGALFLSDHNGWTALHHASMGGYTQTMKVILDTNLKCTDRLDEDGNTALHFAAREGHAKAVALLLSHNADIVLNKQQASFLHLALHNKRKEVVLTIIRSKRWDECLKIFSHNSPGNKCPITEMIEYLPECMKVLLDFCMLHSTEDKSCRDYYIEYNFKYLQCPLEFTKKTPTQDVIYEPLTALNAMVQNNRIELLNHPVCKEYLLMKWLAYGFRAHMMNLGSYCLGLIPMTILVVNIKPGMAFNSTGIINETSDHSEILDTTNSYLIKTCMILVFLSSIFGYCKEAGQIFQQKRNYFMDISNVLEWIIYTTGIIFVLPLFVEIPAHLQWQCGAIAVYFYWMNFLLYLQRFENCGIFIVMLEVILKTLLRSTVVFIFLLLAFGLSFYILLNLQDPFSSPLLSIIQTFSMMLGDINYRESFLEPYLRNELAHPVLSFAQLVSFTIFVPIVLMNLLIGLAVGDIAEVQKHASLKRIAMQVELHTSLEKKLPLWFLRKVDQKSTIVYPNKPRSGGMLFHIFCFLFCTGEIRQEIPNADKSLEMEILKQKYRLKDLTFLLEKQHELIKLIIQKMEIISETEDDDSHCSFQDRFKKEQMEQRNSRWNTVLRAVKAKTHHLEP

For `O=C(O)CC(O)(CC(=O)O)C(=O)O` [citric acid], the “Citric acid concentration of maximum Ca+2 influx” value (TRPA1 [1]) was 10 mM, the “Citric acid concentration that elicited a drop in Ca+2 influx” value (TRPA1 [1]) was 30 mM and the “Induction of Ca+2 influx over basal” value (TRPA1 [1]; [12]) was 4–20 fold. The “Citric acid concentration of peak Ca+2 influx” value (TRPA1 [2]) was 3 mM, the “Citric acid concentration that elicited a drop in Ca+2 influx” value (TRPA1 [2]) was 10 mM and the “Ca+2 influx over basal” value (TRPA1 [2]; highest concentration of citric acid) was roughly 40 fold. For the same molecule, the “Ca+2 influx response to citric acid” value (TRPV1 [3]) was “lack of any significant response; also recorded: did not observe any increase”, the “Citric acid concentration of peak Ca+2 influx” value (TRPA1 [4]) was 3 mM and the “Citric acid concentration that elicited a drop in Ca+2 influx” value (TRPA1 [4]) was 5 mM. For the same molecule, the “Induction of Ca+2 influx over basal” value (TRPA1 [4]; [12]) was 4–20 fold.

For `COc1ccc2c(c1)[C@]13CCCC[C@@H]1[C@H](C2)N(C)CC3` [Dextromethorphan, reference compound], the “Inhibition of cough response” value [5] was 66%.

In the case of `Cn1c(=O)c2c(CC(=O)Nc3nc(-c4ccc(F)c(C(F)(F)F)c4F)cs3)csc2n(C)c1=O` [GRC 17536], the IC50 (TRPA1 [1]; [13]) is given as 8.2 nM, the “Free mean plasma concentration” value [6] is given as “around its in vitro IC50 value” and the IC50 (TRPA1 [7]) is given as 2.71 nM. For the same molecule, the “% Inhibition at 1 µM, TRPV4” value (TRPV4) was 8.2%, the IC50 (TRPA1 [2]; [13]) was 4.6 nM and the “Inhibition of cough response” value [5] was “no significant protective response”. The “Inhibition of cough compared to vehicle” value ([5]; 60 mg/kg i.p.) was 79%, the “Inhibition of cough compared to vehicle” value ([5]; 100 mg/kg i.p.) was 89% and the IC50 (TRPA1 [4]; [13]) was 5 nM. For the same molecule, the “% Inhibition at 1 µM, TRPM8” value (TRPM8) was 8.6%, the “% Inhibition at 1 µM, TRPV1” value (TRPV1 [8]) was 5.6% and the “Inhibition of LPS + AITC induced 45Ca+2 uptake” value (TRPA1 [9]; 10 nM) was 40.4%. For the same molecule, the “Inhibition of Loxoribine + AITC induced 45Ca+2 uptake” value (TRPA1 [9]; 10 nM) was 68.1%, the “Inhibition of ssRNA40 + AITC induced 45Ca+2 uptake” value (TRPA1 [9]; 10 nM) was 53.2% and the “Inhibition of TLR ligand-enhanced 45Ca+2 uptake (summary)” value (TRPA1 [9]; [14]) was roughly 50%. The “Inhibition of 45Ca+2 uptake at the highest concentration (summary)” value (TRPA1 [9]; 1 µM) was “Complete inhibition”, the “Inhibition of LPS + AITC induced 45Ca+2 uptake” value (TRPA1 [9]; 1 µM) was 95.3% and the “Inhibition of Loxoribine + AITC induced 45Ca+2 uptake” value (TRPA1 [9]; 1 µM) was 97.4%. The “Inhibition of ssRNA40 + AITC induced 45Ca+2 uptake” value (TRPA1 [9]; 1 µM) was 98.7%, the IC50 (TRPA1 [10]) was 2.06 nM and the “Inhibition of LPS + AITC induced 45Ca+2 uptake” value (TRPA1 [11]; 10 nM) was 51.3%. For the same molecule, the “Inhibition of Loxoribine + AITC induced 45Ca+2 uptake” value (TRPA1 [11]; 10 nM) was 56.6%, the “Inhibition of ssRNA40 + AITC induced 45Ca+2 uptake” value (TRPA1 [11]; 10 nM) was 63.0% and the “Inhibition of TLR ligand-enhanced 45Ca+2 uptake (summary)” value (TRPA1 [11]; [14]) was roughly 50%. The “Inhibition of 45Ca+2 uptake at the highest concentration (summary)” value (TRPA1 [11]; 1 µM) was “Complete inhibition”, the “Inhibition of LPS + AITC induced 45Ca+2 uptake” value (TRPA1 [11]; 1 µM) was 98.4% and the “Inhibition of Loxoribine + AITC induced 45Ca+2 uptake” value (TRPA1 [11]; 1 µM) was 98.6%. The “Inhibition of ssRNA40 + AITC induced 45Ca+2 uptake” value (TRPA1 [11]; 1 µM) was 96.1% and the “% Inhibition at 1 µM, TRPV3” value (TRPV3) was 27.3%.

— publication PMC4018403, “Transient Receptor Potential Ankyrin 1 Receptor Activation In Vitro and In Vivo by Pro-tussive Agents: GRC 17536 as a Promising Anti-Tussive Therapeutic” (PLoS ONE, 2014)
